# Source: patent US6506772B1, “Substituted [1,2,4]triazolo[1,5a]pyridine derivatives with activity as adenosine receptor ligands” (Hoffmann-La Roche Inc., priority 2000, dated 2003)
# Read-outs that look alike come from different tables or passages of the source.
# Legend:
# [1] = molecular target: T1, HA1 adenosine receptor (Homo sapiens, UniProt P30542); assay: Human adenosine A1 receptor affinity (Ki hA1); format: binding
# T1 sequence (P30542 1-326): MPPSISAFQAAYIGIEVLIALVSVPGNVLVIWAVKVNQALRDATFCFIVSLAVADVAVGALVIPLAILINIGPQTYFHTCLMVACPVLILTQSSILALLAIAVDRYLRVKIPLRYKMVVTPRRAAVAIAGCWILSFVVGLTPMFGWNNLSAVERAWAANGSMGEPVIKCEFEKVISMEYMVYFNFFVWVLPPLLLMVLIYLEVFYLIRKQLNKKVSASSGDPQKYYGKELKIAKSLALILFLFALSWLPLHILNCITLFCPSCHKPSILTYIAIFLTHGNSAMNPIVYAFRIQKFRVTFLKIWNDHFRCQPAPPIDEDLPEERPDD
# [2] = molecular target: T2, human adenosine A2A receptor (Homo sapiens, UniProt P29274); assay: Human adenosine A2A receptor [3H]-SCH-58261 binding assay
# T2 construct: expressed in transfected cells; host or cells: CHO cells, Semliki Forest virus expression system; membrane preparation
# Procedure: Human Adenosine A2A Receptor
# The human adenosine A2A receptor was recombinantly expressed in chinese hamster ovary (CHO) cells using the semliki forest virus expression system. Cells were harvested, washed twice by centrifugation, homogenized and again washed by centrifugation. The final washed membrane pellet was suspended in a Tris (50 mM) buffer containing 120 mM NaCl, 5 mM KCl, 2 mM CaCl2 and 10 MM MgCl2 (pH 7.4) (buffer A). […] Compounds were tested at 10 concentrations from 10 μM-0.3 nM. All assays were conducted in duplicate and repeated at least two times. Assay plates were incubated for 1 hour at room temperature before centrifugation and then bound ligand determined using a Packard Topcount scintillation counter. IC50 values were calculated using a non-linear curve fitting program and Ki values calculated using the Cheng-Prussoff equation.
# [3] = affinity to human adenosine A1 receptor
# [4] = affinity to human adenosine A2A receptor, read-out: Ki HA2A
# [5] = calculated ratio of the affinity to the HA1 receptor to the HA2a receptor
# [6] = recombinant human A2A in CHO cell membranes, [3H]-SCH-58261, Cheng-Prussoff, read-out: Ki hA2A
# T2 sequence (P29274 whole entry): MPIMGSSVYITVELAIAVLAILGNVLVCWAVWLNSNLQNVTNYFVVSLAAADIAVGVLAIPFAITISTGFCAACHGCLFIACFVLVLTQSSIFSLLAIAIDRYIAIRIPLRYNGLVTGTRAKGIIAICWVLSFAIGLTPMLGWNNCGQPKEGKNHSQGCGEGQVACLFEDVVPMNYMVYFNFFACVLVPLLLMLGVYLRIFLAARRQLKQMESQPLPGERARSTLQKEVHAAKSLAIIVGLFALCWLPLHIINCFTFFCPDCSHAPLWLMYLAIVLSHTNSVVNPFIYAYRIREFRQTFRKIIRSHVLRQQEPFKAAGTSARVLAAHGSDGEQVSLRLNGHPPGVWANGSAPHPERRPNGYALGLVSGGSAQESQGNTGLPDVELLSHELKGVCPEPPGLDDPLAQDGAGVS
SMILES,"Ki [1, 3] [nM]","Ki [2, 4] [nM]","selectivity (A1/A2a) [2, 5]",Ki [1] [nM],selectivity (A1/A2a) ([2]; ratio KiHA1 divided by KiHA2A),"Ki [2, 6] [nM]"
"Cc1ccc(-c2nc3cc(C(=O)N4CCOCC4)cc(N)n3n2)s1 [Example 115, [5-Amino-2-(5-methyl-thiophen-2-yl)-[1,2,4]triazolo[1,5-a]pyridin-7-yl]-morpholin-4-yl-methanone]",2920,222,13.2,,,
"CC(C)N(C)C(=O)c1cc(N)n2nc(-c3nccs3)nc2c1 [Example 285, 5-Amino-2-thiazol-2-yl-[1,2,4]triazolo[1,5-a]pyridine-7-carboxylic acid isopropyl-methyl-amide]",2720,83.5,32.6,,,
"CCN(Cc1ccncc1)C(=O)c1cc(N)n2nc(-c3ccccn3)nc2c1 [Example 431, 5-Amino-2-pyridin-2-yl-[1,2,4]triazolo[1,5-a]pyridine-7-carboxylic acid ethyl-pyridin-4-ylmethyl-amide]",,,,1030,31.2,33.1
"Nc1cc(C(=O)N2CCSCC2)cc2nc(-c3ccc(Cl)o3)nn12 [Example 256, [5-Amino-2-(5-chloro-furan-2-yl)-[1,2,4]triazolo[1,5-a]pyridin-7-yl]-thiomorpholin-4-yl-methanone]",430,24.4,17.7,,,
"CCN(C(=O)c1cc(N)n2nc(-c3ccc(C)s3)nc2c1)C1CCCCC1 [Example 24, 5-Amino-2-(5-methyl-thiophen-2-yl)-[1,2,4]triazolo[1,5-a]pyridine-7-carboxylic acid cyclohexyl-ethyl-amide]",247,8.9,27.8,,,
"Nc1cc(C(=O)N(Cc2ccccc2)Cc2ccccc2)cc2nc(-c3ccccn3)nn12 [Example 435, 5-Amino-2-pyridin-2-yl-[1,2,4]triazolo[1,5-a]pyridine-7-carboxylic acid dibenzylamide]",,,,121,19,6.4
"Nc1cc(C(=O)NCc2ccc(Cl)cc2)cc2nc(-c3nccs3)nn12 [Example 205, 5-Amino-2-thiazol-2-yl-[1,2,4]triazolo[1,5-a]pyridine-7-carboxylic acid 4-chloro-benzylamide]",294,157,1.9,,,
"Nc1cc(C(=O)N2CCCCC2)cc2nc(-c3ccccc3O)nn12 [Example 102, [5-Amino-2-(2-hydroxy-phenyl)-[1,2,4]triazolo[1,5-a]pyridin-7-yl]-piperidin-1-yl-methanone]",978,57.6,17.0,,,
"CCN(C(=O)c1cc(N)n2nc(-c3sccc3C)nc2c1)C(C)C [Example 143, 5-Amino-2-(3-methyl-thiophen-2-yl)-[1,2,4]triazolo[1,5-a]pyridine-7-carboxylic acid ethyl-isopropyl-amide]",1090,121,9.0,,,
"CCCCNC(=O)c1cc(N)n2nc(-c3cccnc3)nc2c1 [Example 80, 5-Amino-2-pyridin-3-yl-[1,2,4]triazolo[1,5-a]pyridine-7-carboxylic acid butylamide]",3770,282,13.4,,,
"Nc1cc(C(=O)N(CCc2ccccc2)Cc2ccccc2)cc2nc(-c3cccnc3)nn12 [Example 90, 5-Amino-2-pyridin-3-yl-[1,2,4]triazolo[1,5-a]pyridine-7-carboxylic acid benzyl-phenethyl-amide]",239,144,1.7,,,
"COc1ccccc1CNC(=O)c1cc(N)n2nc(-c3nccs3)nc2c1 [Example 130, 5-Amino-2-thiazol-2-yl-[1,2,4]triazolo[1,5-a]pyridine-7-carboxylic acid 2-methoxy-benzylamide]",128,15.2,8.4,,,
"CN(C(=O)c1cc(N)n2nc(-c3ccc(Br)o3)nc2c1)C1CCCCC1 [Example 340, 5-Amino-2-(5-bromo-furan-2-yl)-[1,2,4]triazolo[1,5-a]pyridine-7-carboxylic acid cyclohexyl-methyl-amide]",77.3,2.6,29.7,,,
"CN(C(=O)c1cc(N)n2nc(-c3ccccn3)nc2c1)C1CCCCC1 [Example 33, 5-Amino-2-pyridin-2-yl-[1,2,4]triazolo[1,5-a]pyridine-7-carboxylic acid cyclohexyl-methyl-amide]",1170,87,13.5,,,
"CCN(CC)CCN(CC)C(=O)c1cc(N)n2nc(-c3ccc(Br)o3)nc2c1 [Example 309, 5-Amino-2-(5-bromo-furan-2-yl)-[1,2,4]triazolo[1,5-a]pyridine-7-carboxylic acid (2-diethylamino-ethyl)-ethyl-amide]",488,49.5,9.9,,,
"Nc1cc(C(=O)NCCc2ccccc2Cl)cc2nc(-c3ccccn3)nn12 [Example 50, 5-Amino-2-pyridin-2-yl-[1,2,4]triazolo[1,5-a]pyridine-7-carboxylic acid [2-(2-chloro-phenyl)-ethyl]-amide]",123,119,1.0,,,
"CCN(C)C(=O)c1cc(N)n2nc(-c3ccc(Br)o3)nc2c1 [Example 264, 5-Amino-2-(5-bromo-furan-2-yl)-[1,2,4]triazolo[1,5-a]pyridine-7-carboxylic acid ethyl-methyl-amide]",277,6.5,42.7,,,
"Nc1cc(C(=O)N2CCSC2)cc2nc(-c3nccs3)nn12 [Example 289, (5-Amino-2-thiazol-2-yl-[1,2,4]triazolo[1,5-a]pyridin-7-yl)-thiazolidin-3-yl-methanone]",2320,55.3,42.0,,,
"CC1CCC(C)N1C(=O)c1cc(N)n2nc(-c3ccc(Br)o3)nc2c1 (stereo not drawn) [Example 275, [5-Amino-2-(5-bromo-furan-2-yl)-[1,2,4]triazolo[1,5-a]pyridin-7-yl]-(2,5-dimethyl-pyrrolidin-1-yl)-methanone]",209,5.4,38.7,,,
"Nc1cc(C(=O)N2CCCCC2c2cccnc2)cc2nc(-c3ccc(Br)o3)nn12 (stereo not drawn) [Example 354, [5-Amino-2-(5-bromo-furan-2-yl)-[1,2,4]triazolo[1,5-a]pyridin-7-yl]-(3,4,5,6-tetrahydro-2H-[2,3′]bipyridinyl-1-yl)-methanone]",45.5,2.9,15.7,,,
"COC[C@H]1CCCN1C(=O)c1cc(N)n2nc(-c3ccccn3)nc2c1 [Example 425, (5-Amino-2-pyridin-2-yl-[1,2,4]triazolo[1,5-a]pyridin-7-yl)-(R-2-methoxymethyl-pyrrolidin-1-yl)-methanone]",,,,1290,31.7,40.8
"COc1cc(CNC(=O)c2cc(N)n3nc(-c4cc(Br)co4)nc3c2)cc(OC)c1OC [Example 177, 5-Amino-2-(4-bromo-furan-2-yl)-[1,2,4]triazolo[1,5-a]pyridine-7-carboxylic acid 3,4,5-trimethoxy-benzylamide]",266,197,1.3,,,
"Nc1cc(C(=O)N2CCCC2)cc2nc(-c3ccccc3)nn12 [Example 150, (5-Amino-2-phenyl-[1,2,4]triazolo[1,5-a]pyridin-7-yl)-pyrrolidin-1-yl-methanone]",711,82.3,8.6,,,
"COc1ccc(CNC(=O)c2cc(N)n3nc(-c4cc(Br)co4)nc3c2)cc1 [Example 176, 5-Amino-2-(4-bromo-furan-2-yl)-[1,2,4]triazolo[1,5-a]pyridine-7-carboxylic acid 4-methoxy-benzylamide]",151,329,0.5,,,
"Cc1ccc(-c2nc3cc(C(=O)N(Cc4ccccc4)C(C)C)cc(N)n3n2)s1 [Example 117, 5-Amino-2-(5-methyl-thiophen-2-yl)-[1,2,4]triazolo[1,5-a]pyridine-7-carboxylic acid benzyl-isopropyl-amide]",178,9.2,19.2,,,
"Nc1cc(C(=O)NCc2ccccc2Cl)cc2nc(-c3ccoc3)nn12 [Example 156, 5-Amino-2-furan-3-yl-[1,2,4]triazolo[1,5-a]pyridine-7-carboxylic acid 2-chloro-benzylamide]",228,17.1,13.3,,,
"CN(CCc1ccccn1)C(=O)c1cc(N)n2nc(-c3ccc(Br)o3)nc2c1 [Example 308, 5-Amino-2-(5-bromo-furan-2-yl)-[1,2,4]triazolo[1,5-a]pyridine-7-carboxylic acid methyl-(2-pyridin-2-yl-ethyl)-amide]",463,9.8,47.2,,,
